Reference: ChEMBL document CHEMBL1201862, “PubChem BioAssay data set” (2004)
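Method: 48-hour compound exposure of cells in 96-well plates, five concentrations, linear interpolation of endpoints. The concentration for 50% growth inhibition is given as GI50.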 Activity calls are given as the source filed them. Cut-off read from the data, not from the text of the source: active = GI50 up to about 1.1 µM and inactive = higher.

Assays:
Test in all cases: inhibition of tumour cell growth, NCI panel, 48 h
[1] = tested on: IGROV-1
[2] = tested on: SK-MEL-28
[3] = tested on: CCRF-CEM
[4] = tested on: SK-MEL-5
[5] = tested on: OVCAR-5
[6] = tested on: RXF 393
[7] = tested on: SW-620
[8] = tested on: UACC-62
[9] = tested on: Malme-3M
[10] = tested on: RPMI-8226
[11] = tested on: SF-268
[12] = tested on: SF-295
[13] = tested on: LOX IMVI
[14] = tested on: DMS-273
[15] = tested on: HT-29
[16] = tested on: NCI-H522
[17] = tested on: Hs-578T
[18] = tested on: A498
[19] = tested on: MDA-N
[20] = tested on: BT-549

Measured: GI50

CP1(=O)CCCCC1
inactive: [1] > 100 µM | [2] > 100 µM | [3] > 100 µM | [4] > 100 µM | [5] > 100 µM | [6] > 100 µM | [7] > 100 µM | [8] > 100 µM | [9] > 100 µM | [10] > 100 µM | [11] > 100 µM | [12] > 100 µM | [13] > 100 µM | [14] > 100 µM | [15] > 100 µM

OCC(O)C(O)C(O)c1nn(-c2ccccc2)c2nc3cc(Cl)c(Cl)cc3nc12 (stereo unspecified)
inactive: [1] 39.4 µM | [2] 48 µM | [3] 40.5 µM | [5] 28.6 µM | [6] 19.9 µM | [7] 88.9 µM | [16] 27.5 µM | [8] 28.8 µM | [9] 19.3 µM | [10] 25.4 µM | [11] 55.1 µM | [12] 56.5 µM | [13] 36.5 µM | [14] 39.8 µM | [15] 24.4 µM

CCCCCCCCCCCCCCCCOCC(CCl)OP(=O)(O)OP(=O)(O)OCC1OC(n2ccc(N)nc2=O)C(O)C1O (stereo unspecified)
inactive: [1] > 100 µM | [2] 99.3 µM | [3] > 100 µM | [17] > 100 µM | [4] > 100 µM | [18] > 100 µM | [19] > 100 µM | [5] > 100 µM | [6] > 100 µM | [7] > 100 µM | [16] > 100 µM | [8] > 100 µM | [9] > 100 µM | [10] > 100 µM | [11] > 100 µM | [20] > 100 µM | [12] > 100 µM | [13] > 100 µM | [15] > 100 µM

Cc1ccc2nc(C(=O)O)c(=O)[nH]c2c1
inactive: [1] > 100 µM | [2] > 100 µM | [3] > 100 µM | [17] > 100 µM | [4] > 100 µM | [18] > 100 µM | [19] > 100 µM | [5] > 100 µM | [6] > 100 µM | [7] > 100 µM | [16] > 100 µM | [8] > 100 µM | [9] > 100 µM | [10] > 100 µM | [11] > 100 µM | [20] > 100 µM | [12] > 100 µM | [13] > 100 µM | [15] > 100 µM

Cc1c(S(=O)(=O)N/C(=N\O)Nc2ccc(Cl)c(Cl)c2)sc2ccc(Cl)cc12
inactive: [1] 17.5 µM | [2] 21.4 µM | [3] 26.8 µM | [17] 28.6 µM | [4] 15.1 µM | [18] 18.1 µM | [19] 17.5 µM | [5] 21.6 µM | [6] 16.9 µM | [7] 39.4 µM | [16] 15.9 µM | [8] 17.7 µM | [9] 20.7 µM | [10] 34.7 µM | [11] 24.8 µM | [20] 17.7 µM | [12] 16 µM | [13] 20.7 µM | [15] 14.4 µM

OC12c3ccccc3C1CCCCC2N1CCCC1 (stereo unspecified)
inactive: [2] > 100 µM | [3] > 100 µM | [4] > 100 µM | [6] > 100 µM | [7] > 100 µM | [16] > 100 µM | [8] > 100 µM | [9] > 100 µM | [10] > 100 µM | [11] > 100 µM | [12] > 100 µM | [13] > 100 µM | [14] > 100 µM | [15] > 100 µM

CCN(CC)CCCC(C)Nc1ccnc2ccc3nn(C)nc3c12 (stereo unspecified)
inactive: [1] > 100 µM | [3] 25.1 µM | [4] > 100 µM | [18] 37 µM | [5] > 100 µM | [7] 22.3 µM | [8] > 100 µM | [9] 50.6 µM | [10] 53 µM | [11] > 100 µM | [12] 44.7 µM | [13] 17.9 µM | [14] 26.4 µM | [15] 26.5 µM

CCN(CC)C1CCC(C2c3cc4c(cc3OC(N3CCOCC3)C2C)OCO4)CC1 (stereo unspecified)
inactive: [1] > 27.9 µM | [2] 16.3 µM | [3] 27.2 µM | [17] 28.7 µM | [4] 9.31 µM | [18] 21 µM | [19] 4.28 µM | [5] 36.4 µM | [6] 10.7 µM | [7] 16.1 µM | [16] 12.4 µM | [8] 16.7 µM | [9] 21.6 µM | [10] 15.5 µM | [11] > 100 µM | [20] 16.9 µM | [12] 9.46 µM | [13] 11.4 µM | [15] 5.75 µM

O=c1[nH]c(=S)[nH]c(-c2ccccc2)c1Cc1c(O)ccc2ccccc12 [CAMBINOL]
inactive: [1] 33.7 µM | [2] 39.2 µM | [3] 19.9 µM | [17] 43.9 µM | [4] 21 µM | [18] 21.3 µM | [19] 27.9 µM | [5] 33.4 µM | [6] 29.8 µM | [7] 42.8 µM | [16] 8.89 µM | [8] 21 µM | [9] 7.98 µM | [10] 21.6 µM | [11] 24.7 µM | [20] 27.1 µM | [12] 52 µM | [13] 36.1 µM | [15] 39.4 µM

CCOC1CN=C(Nc2cccc3ccccc23)S1 (stereo unspecified)
inactive: [1] > 10 µM | [2] > 10 µM | [3] > 10 µM | [17] > 10 µM | [4] > 10 µM | [18] > 10 µM | [19] > 10 µM | [5] > 10 µM | [6] > 10 µM | [7] > 10 µM | [16] > 10 µM | [8] > 10 µM | [9] > 10 µM | [10] > 10 µM | [11] > 10 µM | [20] > 10 µM | [12] > 10 µM | [13] > 10 µM | [15] > 10 µM

COc1cc(-c2oc3c(OC)c(O)cc(O)c3c(=O)c2OC)ccc1O
inactive: [1] 3.09 µM | [2] 12.9 µM | [3] 3.12 µM | [17] 1.84 µM | [4] 6.31 µM | [18] 4.2 µM | [19] 10.6 µM | [5] 22.3 µM | [6] 3.73 µM | [7] 13.8 µM | [16] 8.17 µM | [8] 3.61 µM | [9] > 47.8 µM | [10] 4.09 µM | [11] 3.08 µM | [20] 5.18 µM | [12] 17.5 µM | [13] 4.12 µM | [15] 37.4 µM

O=S(=O)(O)c1c(/N=N/c2c(O)ccc3ccccc23)ccc2ccccc12
inactive: [1] 79.8 µM | [2] > 100 µM | [3] 48.4 µM | [17] > 100 µM | [4] > 100 µM | [18] > 100 µM | [19] > 100 µM | [5] > 100 µM | [6] > 100 µM | [7] > 100 µM | [16] 93.5 µM | [8] > 100 µM | [9] 55.1 µM | [10] > 100 µM | [11] 51.4 µM | [20] > 100 µM | [12] > 100 µM | [13] > 100 µM | [15] > 100 µM

C[C@@H](NC1CCC[C@H]1O)c1ccccc1 (stereo partly specified)
inactive: [1] > 100 µM | [2] > 100 µM | [3] > 100 µM | [4] > 100 µM | [5] > 100 µM | [6] > 100 µM | [7] > 100 µM | [8] > 100 µM | [9] > 100 µM | [10] > 100 µM | [12] > 100 µM | [13] > 100 µM | [14] > 100 µM | [15] > 100 µM

CCCCCCCCCCCCCCCCCCNc1nc(=O)n(C2CC(O)C(COP(=O)(O)O)O2)cc1F (stereo unspecified)
inactive: [1] > 74.8 µM | [2] > 100 µM | [3] 38 µM | [17] > 100 µM | [4] > 100 µM | [18] 6.27 µM | [19] > 100 µM | [5] > 100 µM | [6] > 80 µM | [7] > 100 µM | [16] > 100 µM | [8] > 78.2 µM | [9] > 100 µM | [10] > 63.2 µM | [11] 49.4 µM | [20] > 100 µM | [12] > 80.7 µM | [13] 58.9 µM | [15] > 100 µM

Cc1c(-c2ccccc2)c(-c2ccc(OCCN(C)C)cc2)n2ccccc12
inactive: [1] 10.1 µM | [2] 1.79 µM | [3] 3.72 µM | [17] 5.41 µM | [4] 1.87 µM | [18] 14.8 µM | [19] 4.37 µM | [5] 15 µM | [6] 7.69 µM | [7] 5.5 µM | [16] 9.06 µM | [8] 1.84 µM | [9] 4.38 µM | [10] 2.69 µM | [11] 14.3 µM | [20] 5.65 µM | [12] 12.2 µM | [13] 2.23 µM | [15] 1.82 µM

CCOC(=O)Nc1ccc(S(=O)(=O)Nc2ccc(Br)cc2)cc1
inactive: [1] 35 µM | [2] 39.8 µM | [3] 46.8 µM | [17] 30.6 µM | [4] 18.5 µM | [18] 13.6 µM | [19] 37 µM | [5] 58.1 µM | [6] 22 µM | [7] 24.3 µM | [16] 29 µM | [8] 22.4 µM | [9] 74 µM | [10] 25.1 µM | [11] 28.2 µM | [20] 35.1 µM | [12] 30.9 µM | [13] 26.4 µM | [15] 33.2 µM
